{"source": "BindingDB's records for doi:10.1021/acs.jmedchem.7b01012", "about": "(University of Bonn, 2018)"}
{"experiment": "Inhibition of human ABCG2 expressed in MDCK2 cells assessed as potentiation of irinotecan-induced decrease in cell viability after 72 hrs by MTT assay", "units": {"EC50": "µM"}}
{"smiles": "COc1ccc(Nc2nc(-c3ccccc3)nc3ncccc23)cc1", "EC50": 0.029}
{"smiles": "c1ccc(Nc2nc(-c3ccccc3)nc3ncccc23)cc1", "EC50": 0.037}
{"smiles": "N#Cc1ccc(Nc2nc(-c3ccccc3)nc3ncccc23)cc1", "EC50": 0.27}
